Patent US9493420B2, “Quinoline derivatives and uses thereof” (Portland State University, priority 2005, dated 2016)

What was measured:
[1] = biological target: T1, recombinant human dopamine (HEK-hDAT) transporter (Homo sapiens, UniProt Q01959); assay: Inhibition of [3H]neurotransmitter uptake, hDAT; format: cell-based
T1 construct: expressed in transfected cells; host or cells: HEK cells expressing hDAT (HEK-hDAT)
Experimental: (§1) Selected RCQs were tested for inhibition of [^3H]neurotransmitter uptake by the recombinant human serotonin (hSERT), dopamine (HEK-hDAT), and norepinephrine (hNET) transporters by a modification of the method of Eshleman et al. (J. Pharmacol. Exp. Ther., 289(2):877-885, 1999). HEK-hDAT, hSERT, and -hNET expressing cells were grown on tissue culture dishes. After removing the medium and washing the plates with Ca^2+-, Mg^2+-free phosphate buffered saline (PBS), fresh medium was added and the plates were placed in a 25° C. water bath for 5 minutes. Cells were gently lifted from the plates and cell clusters separated by trituration. 50 μL aliquots of the suspended cells were added to assay tubes containing drugs and Krebs-HEPES assay buffer in a final volume of 0.5 mL.
(§2) Competition experiments were conducted in triplicate. After a 10 minute preincubation period at 25° C., [^3H]neurotransmitter (20 nM final concentration; [^3H]DA, [^3H]5-HT, or [^3H]NE) were added, and the mixtures incubated for 10 minutes. Reactions were terminated by filtration through Wallac filtermat A filters (presoaked in 0.05% polyethylenimine), using a Tomtec cell harvester. Scintillation fluid was added to each filtered spot, and radioactivity remaining on the filters determined using a Wallac 1205 Betaplate scintillation counter.
(§3) Specific uptake was defined as the difference in uptake observed in the absence and presence of 5 μM mazindol (hDAT and hNET) or 5 μM imipramine (hSERT). Inhibition of uptake was determined by non-linear regression using Prism software.

P. chabaudi parasites = assay: 4-day suppressive test in infected mice; format: in vivo; conditions: 64 mg/kg oral gavage once per day for four days; male CF-1 mice; by day 4
Text: Antimalarial compounds can also be tested for efficacy in vivo. One non-limiting exemplary method for performing such testing is the 4-day suppressive test (Peters, Ann. Trop. Med. Parasitol., 69(2):155-171, 1975). Briefly, such test involves collecting P. chabaudi (Mackinnon and Read, Philos. Trans. R. Soc. Lond. B Biol. Sci., 359:965-986, 2004; Mackinnon et al., Exp. Parasitol., 101 (2-3):121-128, 2002) from a donor animal harboring ˜20% parasitemia. Male CF-1 mice at 4-5 weeks of age (˜20 g) are infected with ˜10^7 infected red blood cells via 100 μL tail vein injection and randomly sorted into groups of 4 mice each on day 0. One hour after infection, the mice receive the test agent via oral gavage, or by the intraperitoneal route (at approximately 1-10 times the in vitro IC50 values). Drugs are administered once daily for at least 4 days beginning at day 0. […] Efficacy of a tested compound in this bioassay is measured by inhibition of parasite growth as defined previously. […]
A variation of the 4-day suppressive test described by Peters (Ann. Trop. Med. Parasitol., 69(2):155-171, 1975) was used to test the in vivo effectiveness of RCQ_02 as a treatment for Plasmodium sp. infection. Briefly, P. chabaudi parasites (Mackinnon and Read, Philos. Trans. R. Soc. Lond. B Biol. Sci., 359:965-986, 2004) were collected from a donor animal harboring approximately 20% parasitemia. […]

[2] = biological target: T2, recombinant human serotonin (hSERT) transporter (Homo sapiens, UniProt P31645); assay: Inhibition of [3H]neurotransmitter uptake, hSERT; format: cell-based
T2 construct: expressed in transfected cells; host or cells: HEK cells expressing hSERT
Experimental: as §1, §2, §3

T1 sequence (Q01959 whole entry): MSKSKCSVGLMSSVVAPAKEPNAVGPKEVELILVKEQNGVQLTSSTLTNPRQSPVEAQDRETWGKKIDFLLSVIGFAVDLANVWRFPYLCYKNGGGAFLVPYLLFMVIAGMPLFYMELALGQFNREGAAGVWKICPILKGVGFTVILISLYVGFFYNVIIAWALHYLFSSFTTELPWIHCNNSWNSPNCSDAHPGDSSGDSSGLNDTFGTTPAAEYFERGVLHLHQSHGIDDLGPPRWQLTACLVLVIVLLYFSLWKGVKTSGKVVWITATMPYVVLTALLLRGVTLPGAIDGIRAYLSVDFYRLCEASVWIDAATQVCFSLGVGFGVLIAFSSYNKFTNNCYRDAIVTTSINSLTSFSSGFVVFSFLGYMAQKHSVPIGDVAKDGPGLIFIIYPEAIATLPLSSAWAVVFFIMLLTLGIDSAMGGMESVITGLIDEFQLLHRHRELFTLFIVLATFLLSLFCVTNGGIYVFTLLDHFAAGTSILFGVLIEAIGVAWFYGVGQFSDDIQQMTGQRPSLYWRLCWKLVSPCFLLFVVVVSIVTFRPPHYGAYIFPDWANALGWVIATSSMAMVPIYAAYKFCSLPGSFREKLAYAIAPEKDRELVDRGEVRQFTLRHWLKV
T2 sequence (P31645 whole entry): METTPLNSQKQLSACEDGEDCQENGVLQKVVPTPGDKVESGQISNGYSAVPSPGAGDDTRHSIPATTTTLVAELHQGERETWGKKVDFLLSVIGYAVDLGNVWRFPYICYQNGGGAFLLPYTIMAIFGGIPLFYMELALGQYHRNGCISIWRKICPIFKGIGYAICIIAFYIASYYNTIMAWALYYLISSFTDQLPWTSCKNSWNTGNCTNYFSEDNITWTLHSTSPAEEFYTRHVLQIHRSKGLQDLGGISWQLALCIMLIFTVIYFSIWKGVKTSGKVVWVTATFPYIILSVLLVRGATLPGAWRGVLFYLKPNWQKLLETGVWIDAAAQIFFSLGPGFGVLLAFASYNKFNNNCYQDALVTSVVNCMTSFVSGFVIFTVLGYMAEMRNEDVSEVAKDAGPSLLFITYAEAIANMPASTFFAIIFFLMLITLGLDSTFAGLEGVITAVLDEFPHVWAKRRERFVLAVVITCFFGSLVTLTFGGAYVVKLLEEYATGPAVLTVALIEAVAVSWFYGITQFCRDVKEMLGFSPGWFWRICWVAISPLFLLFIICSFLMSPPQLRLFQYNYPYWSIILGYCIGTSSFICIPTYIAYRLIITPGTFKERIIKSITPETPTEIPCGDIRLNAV

IC50 [1]: 2200 nM
IC50 [2]: 230 nM
SMILES: CN(CCCNc1ccnc2cc(Cl)ccc12)CCCN1c2ccccc2CCc2ccccc21 [RCQ_02, N′-(7-Chloro-quinolin-4-yl)-N-[3-(10,11-dihydro-dibenzo[b,f]azepin-5-yl)-propyl]-N-methyl-propane-1,3-diamine]
cleared of parasites (P. chabaudi parasites): > 99%
